{
  "source": "paper PMC7614683",
  "about": "“A small molecule PI3Kα activator for cardioprotection and neuroregeneration” (Nature, 2023)",
  "test_system": "133 protein kinases and 7 lipid kinases",
  "assay": "SelectScreen kinase profiling, whole panel",
  "assay_type": "biochemical",
  "conditions": "1 μM of 1938",
  "procedure": "133 protein kinases and 7 lipid kinases were counterscreened, with 1938 used at 1 μM, using the Adapta, Lantha and Z-LYTE assays (SelectScreen Kinase Profiling Service; Thermofisher – experimental details of these assays can be found here: https://www.thermofisher.com/uk/en/home/industrial/pharma-biopharma/drug-discovery-development/target-and-lead-identification-and-validation/kinasebiology/kinase-activity-assays.html. The tree represention in KinMap[59] generated courtesy of Cell Signaling Technology, Inc. (www.cellsignal.com). mTORC1 (mTOR/RAPTOR/LST8) protein complex and ATM kinase and substrates were produced as previously described[57],[60]. Screening of 1938 was conducted using SuperSep Phos-Tag 50 μmol/l 100 x 100 x 6.6 mm 17-well (192-18001/199-18011) gels. For ATM assays, 100 nM ATM was incubated for 30 min at 30°C with 5 μM GST-p53 and 1 mM ATP, in the absence or presence of 200 μM 1938 in ATM Kinase Buffer (50 mM HEPES pH 7.5, 100 mM NaCl, 10% glycerol, 2 mM […], 5 mM MgCl2). As a positive control for ATM activation, the same reaction was carried out with 100 nM ATM/5 μM GST-p53/1 mM ATP in the presence of 100 nM Mre11-Rad50-Nbs1 (MRN) complex, a known activator of ATM[61]. […] Gels were then stained using InstantBlue™ Coomassie, and quantified using BioRad Image Lab Software. […]",
  "data": [
    {"smiles": "CCN1CCN(c2ccc(Nc3cc(Nc4cccc5c4N(C(C)=O)CC5)ccn3)cc2)CC1", "note": "[Compound 1938]", "values": [
      {"measurement": "effect on PI3Kβ, PI3Kγ, PI3Kδ, PI3K-C2α, Vps34, PI4Kβ, mTOR and DNA-PK", "value": "did not affect the activity"},
      {"measurement": "inhibition of 13 protein kinases of the panel", "value": "25-50%"}
    ]}
  ]
}
